This note sets out measurements from patent publication US20150362481A1, “METHOD FOR THE IDENTIFICATION OF BITTER TASTING COMPOUNDS AND BITTER TASTE MODULATING COMPOUNDS” (Universitat Wien, priority 2013, published 2015).

Assay [1] relates to HGT-1 cells. Nature of the assay: Reduction of bitter substance induced proton secretion in HGT-1 cells by bitter-masking compounds. Format: cell-based, human. The conditions noted are these: 10 min. As to the method:
(§1) The human gastric tumor cell line HGT-1 was used for all cell culture experiments. This cell line has been obtained from Dr. C. Laboisse (Laboratory of Pathological Anatomy, Nantes, France). The cells were cultured under standard conditions at 37° C., 95% humidity, and 5% CO2 in DMEM with 4 g/L glucose, 10% fetal bovine serum, 2% L-glutamine, and 1% penicillin/streptomycin. For the reverse transcription and the intracellular proton concentration assay, the cells were harvested using trypsin/EDTA. Cell viability has been determined using trypan blue staining for which the cells were seeded in a defined cell number in 35 mm dishes respectively in black 96-well plates. […] In a 96-well plate, a total of 100,000 HGT-1 cells were spread and allowed to settle for 24 h at 37° C., 95% humidity, and 5% CO2. Cells were washed once with KRHB and incubated with the fluorescence dye SNARF-1-AM at a concentration of 3 μM for 30 min. […] As positive control, the cells were treated with 1 mM histamine. Fluorescence was analyzed at an excitation of 488 nm and emission wavelengths were recorded at 580 nm and 640 nm on an Infinite 200 Pro plate reader. The ratio of the fluorescence intensities from those two emission wavelengths allows an accurate determination of pH when plotted on a calibration curve. […] The potassium buffer calibration solutions for the intracellular pH measurement consisted of 20 mM NaCl, 110 mM KCl, 1 mM CaCl2, 1 mM MgSO4, 18 mM D-glucose, and 20 mM HEPES. The pH calibration was fit to a linear regression curve. Intracellular proton concentration was calculated from the pH. The reduced amount of protons in the cell was calculated by log 2 transformation of the ratio between treated and untreated cells (control). The presented data is given as percent variation in comparison to untreated cells.

Assay [2] deals with sensorically-trained expert panel. Nature of the assay: Sensoric assessment: bitter-reduction of a bitter tasting solution. On the set-up: key to Bitterness Bitter compound + Test substance: 1 = not bitter, 10 = extremely bitter. The note with it: for Bitterness Bitter compound + Test substance: scale 1 to 10; for Bitterness Bitter compound alone: scale 1 [not bitter] to 10 [extremely bitter]. Format: in vivo, human. As to the method: For categorization of the bitter impression, a scale from 1 [not bitter] to 10 [extremely bitter] was used. For calculation of the percent reduction of bitter taste, the mean values of the rating of the expert panel for the solution of the bitter substance alone and the solution of the bitter substance in combination with the tested potential masking substance were compared. Significances were calculated using a paired, two sided student t-test and indicated by the p-values in Table 4.

Assay [3] relates to HGT-1 cells. Nature of the assay: Proton secretion in HGT-1 cells after stimulation with bitter substances (intracellular pH, SNARF-1-AM). Format: cell-based, human. The note with it: 10 min stimulation, vs untreated cells. As to the method:
as §1, with “of 100 000” for “of 100,000”, “with Krebs-Ringer-HEPES buffer (KRHB),” for “with KRHB”, “488 nm, whereas” for “488 nm and”, “linear regression.” for “linear regression curve.”, “cells. […] Statistic: one-way Anova with post-hoc Test after Dunn's. Significant differences (p<0.05) are indicated by letters. […] Statistic: one-way Anova with post-hoc Test after Dunn's. Significant differences (p<0.05) are indicated by letters.” for “cells.”

For assay [4], the system named is TAS2R10 "knockdown" HGT-1 cells. Description: Effect of caffeine on proton secretion in TAS2R10 siRNA knockdown HGT-1 cells. Format: cell-based, human. The note with it: 3 mM, 10 min. How it is done: The HiPerFect transfection reagent (Qiagen) was used to transfect small interfering RNA (siRNA), targeting specifically human TAS2R10 (5′-[…]-3′; Sigma-Aldrich) into HGT-1 cells for the specific reduction of TAS2R10 expression. Cells were grown to 50% confluence in serum containing DMEM-media and incubation for 48 h was started by addition of serum-free media containing siRNA targeted against TAS2R10 (final siRNA concentration 1 nM) and HiPerFect transfection reagent (1 μL/6 pmol siRNA). Unrelated non-silencing siRNA (Qiagen) was used as negative control and siRNA targeted against Mn/Hs_MAPK1 which is known to efficiently knocks down human MAPK1 (Qiagen) was used as positive control. A mock transfection, in which only the HiPerFect transfection reagent was tested, was also carried out to exclude the effects of the transfection reagent itself. The knockdown efficiency was controlled by measuring mRNA expression of TAS2R10 using RT-qPCR as explained in example 1.
Statistics: two-way ANOVA with Student-Newman-Keuls post-hoc test, data shown as mean±SEM, n=3, tr=6.

[5] abbreviates: 0.3 mM theobromine + 0.03 mM test compound.
[6] abbreviates: 0.3 mM theobromine + 0.3 mM test compound.
Where [7] appears, read: 3 mM caffeine + 0.03 mM test compound.
The mark [8] stands for this setting: 3 mM caffeine + 0.3 mM test compound.
Setting [9] is: caffeine 500 ppm + test compound 100 ppm.
[10] abbreviates: theobromine 300 ppm + test compound 100 ppm.
Where [11] appears, read: caffeine 500 ppm + test compound 25 ppm.
The mark [12] stands for this setting: theobromine 300 ppm + test compound 25 ppm.

Several values for one entry are separate records, joined by “and”; a condition that tells them apart may be missing. Identical values can stand only once.

For the molecule `COc1cc([C@@H]2CC(=O)c3c(O)cc(O)cc3O2)ccc1O` [Homoeriodictyol, homoeriodictyol], the “Percent increase in proton secretion T/C [%]” value (“Percent increase … [%]” for short) in the assay with HGT-1 cells [1] (0.3 mM theobromine + 0.003 mM test compound) is given as 21.56%; with HGT-1 cells [1] (setting [5]), 13.79%; in the assay on HGT-1 cells [1] (setting [6]) it was −16.92%; in the assay on HGT-1 cells [1] (setting [7]) it was 37.99%; in the assay with HGT-1 cells [1] (setting [8]) it was 20.18%. Further, the entries for the “% Reduction of the Bitter impression” value in assay [2] (setting [9]) and in assay [2] (setting [10]) were 28% and 12.5%, respectively. Also, the figures for the “Bitterness Bitter compound + Test substance” value in assay [2] (setting [9]) and in assay [2] (setting [10]) were 4.5 ± 1.4 and 3.7 ± 1.3, respectively.
As for `Cn1cnc2c1c(=O)[nH]c(=O)n2C` [Theobromine, theobromine], the “Proton secretion T/C [%]” value in the assay with HGT-1 cells [3] (0.03 μM) came out at 3.71%; in the assay with HGT-1 cells [3] (0.3 μM) it was 17.71%; with HGT-1 cells [3] (3 μM), 43.16%; in the assay with HGT-1 cells [3] (30 μM), 44.88%; with HGT-1 cells [3] (300 μM) it was 57.2%. In assay [2] (300 ppm), the “Bitterness Bitter compound alone” value is 3.8 ± 1.8 and 4.5 ± 2.01 and 4.2 ± 1.65 and 4.3 ± 1.8.
Turning to `COc1cc(C[C@H]2COC(=O)[C@@H]2Cc2ccc(O)c(OC)c2)ccc1O` [Matairesinol, matairesinol], the “Percent increase … [%]” value in the assay with HGT-1 cells [1] (setting [5]) is given as 23.41%; in the assay on HGT-1 cells [1] (setting [6]), −18.25%; with HGT-1 cells [1] (setting [7]), 14.39%; in the assay on HGT-1 cells [1] (setting [8]), −20.43%. Moreover, the entries for the “% Reduction of the Bitter impression” value in assay [2] (setting [11]) and in assay [2] (setting [12]) were 35.5% and 24.7%, respectively. Moreover, the entries for the “Bitterness Bitter compound + Test substance” value in assay [2] (setting [11]) and in assay [2] (setting [12]) were 2.7 ± 1.77 and 3.4 ± 1.49, respectively.
For `O=C1C[C@@H](c2ccc(O)c(O)c2)Oc2cc(O)cc(O)c21` [Eriodictyol, eriodictyol], the “Percent increase … [%]” value is 23.95% in the assay with HGT-1 cells [1] (setting [5]), −42.86% in the assay with HGT-1 cells [1] (setting [6]), 29.69% with HGT-1 cells [1] (setting [7]) and −33.96% with HGT-1 cells [1] (setting [8]). The figures for the “% Reduction of the Bitter impression” value in assay [2] (setting [9]) and in assay [2] (setting [10]) were 47% and 36%, respectively. The “Bitterness Bitter compound + Test substance” value worked out at 3.5 ± 0.7 in assay [2] (setting [9]) and 2.4 ± 1.2 in assay [2] (setting [10]).
Turning to `NCCc1c[nH]cn1` [Histamine, histamine], the “Proton secretion T/C [%]” value in the assay with HGT-1 cells [3] (1 mM) is 36.66% and 45.70%.
With `Cn1c(=O)c2c(ncn2C)n(C)c1=O` [Caffeine, caffeine], the “Proton secretion T/C [%]” value with HGT-1 cells [3] (0.3 μM) is on record as 25.49%; in the assay with HGT-1 cells [3] (3 μM), 14.74%; in the assay on HGT-1 cells [3] (30 μM) it was 23.43%; in the assay on HGT-1 cells [3] (300 μM), 17.07%; in the assay on HGT-1 cells [3] (3000 μM), 40.97%. In addition, the “Percent increase … [%]” value in the assay on HGT-1 cells [1] (3 mM caffeine alone) is 54.79% and 54.05% and 38.75% and 52.41%. In assay [2] (500 ppm), the “Bitterness Bitter compound alone” value is 6.7 ± 1.1 and 4.1 ± 0.9 and 6.3 ± 1.4. The “Percent effect on proton secretion T/C [%]” value is given as 52.80% in assay [4] (mock transfected cells), 48.80% in assay [4] (not transfected cells) and 28.58% in assay [4] (siRNA TAS2R10 knockdown cells).
In the case of `COc1cc(C[C@H]2CO[C@H](c3ccc(O)c(OC)c3)[C@H]2CO)ccc1O` [Lariciresinol, lariciresinol], the “Percent increase … [%]” value with HGT-1 cells [1] (setting [5]) is on record as 31.73%; in the assay on HGT-1 cells [1] (setting [6]) it was 17.55%; in the assay on HGT-1 cells [1] (setting [7]) it was 46.40%; in the assay on HGT-1 cells [1] (setting [8]), 21.57%. In addition, the figures for the “% Reduction of the Bitter impression” value in assay [2] (setting [11]) and in assay [2] (setting [12]) were 38.6% and 10.7%, respectively. Moreover, the “Bitterness Bitter compound + Test substance” value worked out at 2.9 ± 1.41 in assay [2] (setting [11]) and 3.7 ± 2.24 in assay [2] (setting [12]).
